# Assay results: ChEMBL document CHEMBL1127727, “Synthesis and structure-activity relationships of novel retinoid X receptor-selective retinoids” (J Med Chem, 1994)
# What was measured:
# [1] = target: T1, Retinoic acid receptor alpha (Homo sapiens, UniProt P10276); assay: Inhibition of [3H]ATRA binding to baculovirus expressed retinoid receptor RAR alpha
# T1 sequence (P10276 whole entry): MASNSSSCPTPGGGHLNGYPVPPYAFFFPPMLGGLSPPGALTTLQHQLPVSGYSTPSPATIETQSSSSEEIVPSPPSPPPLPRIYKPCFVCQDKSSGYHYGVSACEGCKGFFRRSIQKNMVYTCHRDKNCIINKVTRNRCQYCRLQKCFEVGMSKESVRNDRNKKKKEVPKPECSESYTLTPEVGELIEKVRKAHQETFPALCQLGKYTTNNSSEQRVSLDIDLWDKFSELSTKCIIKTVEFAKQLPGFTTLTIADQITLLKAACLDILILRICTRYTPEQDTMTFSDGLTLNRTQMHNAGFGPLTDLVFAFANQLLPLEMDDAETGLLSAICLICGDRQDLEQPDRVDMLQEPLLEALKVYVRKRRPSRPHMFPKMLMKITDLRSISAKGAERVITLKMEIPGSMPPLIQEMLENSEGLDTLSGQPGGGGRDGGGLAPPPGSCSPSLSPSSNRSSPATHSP
# [2] = target: T2, Retinoic acid receptor beta (Homo sapiens, UniProt P10826); assay: Inhibition of [3H]ATRA binding to baculovirus expressed retinoid receptor RAR beta
# T2 sequence (P10826 whole entry): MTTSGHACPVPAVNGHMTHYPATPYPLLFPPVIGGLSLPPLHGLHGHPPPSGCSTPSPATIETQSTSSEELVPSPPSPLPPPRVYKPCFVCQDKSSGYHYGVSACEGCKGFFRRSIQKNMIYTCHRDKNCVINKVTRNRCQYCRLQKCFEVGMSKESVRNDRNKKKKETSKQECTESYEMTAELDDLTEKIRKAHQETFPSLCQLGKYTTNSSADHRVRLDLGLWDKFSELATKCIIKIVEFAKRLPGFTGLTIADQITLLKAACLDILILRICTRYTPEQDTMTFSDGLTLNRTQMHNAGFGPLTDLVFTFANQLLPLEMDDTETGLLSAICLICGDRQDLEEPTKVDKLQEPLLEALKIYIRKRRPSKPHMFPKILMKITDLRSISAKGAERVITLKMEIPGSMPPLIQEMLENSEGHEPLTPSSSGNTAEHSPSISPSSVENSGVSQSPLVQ
# [3] = target: T3, Retinoic acid receptor RXR-beta (Mus musculus, UniProt P28704); assay: Inhibition of [3H]9-cis-RA binding to baculovirus expressed retinoid receptor RXR beta
# T3 sequence (P28704 whole entry): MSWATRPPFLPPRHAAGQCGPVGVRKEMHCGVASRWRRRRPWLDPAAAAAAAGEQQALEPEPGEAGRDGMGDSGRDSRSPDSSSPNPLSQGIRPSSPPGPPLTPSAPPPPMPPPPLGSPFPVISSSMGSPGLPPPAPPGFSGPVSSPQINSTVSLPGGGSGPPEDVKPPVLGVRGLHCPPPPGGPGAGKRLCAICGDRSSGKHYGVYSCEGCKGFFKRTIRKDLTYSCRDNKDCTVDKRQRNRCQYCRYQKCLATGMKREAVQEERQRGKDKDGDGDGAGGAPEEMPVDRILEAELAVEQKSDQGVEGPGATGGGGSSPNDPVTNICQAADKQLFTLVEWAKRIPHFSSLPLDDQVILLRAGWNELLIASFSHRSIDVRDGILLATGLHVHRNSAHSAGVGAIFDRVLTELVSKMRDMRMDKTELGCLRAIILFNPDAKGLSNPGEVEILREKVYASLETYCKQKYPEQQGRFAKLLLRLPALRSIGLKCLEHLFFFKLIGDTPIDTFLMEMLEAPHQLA
# [4] = target: T4, Retinoic acid receptor RXR-gamma (Mus musculus, UniProt P28705); assay: Inhibition of [3H]9-cis-RA binding to baculovirus expressed retinoid receptor RXR gamma
# T4 sequence (P28705 whole entry): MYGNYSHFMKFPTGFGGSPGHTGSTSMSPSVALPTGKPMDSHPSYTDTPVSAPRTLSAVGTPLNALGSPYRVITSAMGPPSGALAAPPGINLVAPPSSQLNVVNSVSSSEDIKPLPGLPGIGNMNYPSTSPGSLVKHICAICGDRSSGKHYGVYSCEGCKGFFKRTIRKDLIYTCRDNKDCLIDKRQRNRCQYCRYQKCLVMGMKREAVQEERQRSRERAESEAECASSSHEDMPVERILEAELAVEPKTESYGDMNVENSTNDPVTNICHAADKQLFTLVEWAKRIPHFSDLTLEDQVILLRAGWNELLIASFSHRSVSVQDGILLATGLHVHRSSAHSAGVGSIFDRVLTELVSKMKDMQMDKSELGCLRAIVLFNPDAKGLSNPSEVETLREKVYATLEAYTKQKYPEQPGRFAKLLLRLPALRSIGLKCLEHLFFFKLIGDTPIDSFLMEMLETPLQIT
# [5] = target: T5, Retinoic acid receptor RXR-alpha (Homo sapiens, UniProt P19793)
# T5 sequence (P19793 whole entry): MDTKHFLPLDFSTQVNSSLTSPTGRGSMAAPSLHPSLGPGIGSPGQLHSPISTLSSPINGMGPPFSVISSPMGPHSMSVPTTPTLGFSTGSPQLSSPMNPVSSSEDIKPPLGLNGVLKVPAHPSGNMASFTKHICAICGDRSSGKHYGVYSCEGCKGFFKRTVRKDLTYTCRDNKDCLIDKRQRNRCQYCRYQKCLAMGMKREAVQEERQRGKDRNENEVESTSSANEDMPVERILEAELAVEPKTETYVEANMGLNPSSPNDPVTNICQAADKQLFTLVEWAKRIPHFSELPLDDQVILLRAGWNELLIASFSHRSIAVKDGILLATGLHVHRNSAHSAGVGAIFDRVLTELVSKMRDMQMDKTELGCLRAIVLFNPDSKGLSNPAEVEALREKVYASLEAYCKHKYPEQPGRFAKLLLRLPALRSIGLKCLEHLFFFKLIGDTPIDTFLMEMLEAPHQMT
# Description: Effective concentration against retinoid receptor isoform (RXR alpha) expressed in CV-1 cells
# [6] = target: T6, Retinoic acid receptor gamma (Homo sapiens, UniProt P13631); assay: Effective concentration against retinoid receptor isoform (RAR gamma) expressed in CV-1 cells; format: cell-based
# T6 sequence (P13631 whole entry): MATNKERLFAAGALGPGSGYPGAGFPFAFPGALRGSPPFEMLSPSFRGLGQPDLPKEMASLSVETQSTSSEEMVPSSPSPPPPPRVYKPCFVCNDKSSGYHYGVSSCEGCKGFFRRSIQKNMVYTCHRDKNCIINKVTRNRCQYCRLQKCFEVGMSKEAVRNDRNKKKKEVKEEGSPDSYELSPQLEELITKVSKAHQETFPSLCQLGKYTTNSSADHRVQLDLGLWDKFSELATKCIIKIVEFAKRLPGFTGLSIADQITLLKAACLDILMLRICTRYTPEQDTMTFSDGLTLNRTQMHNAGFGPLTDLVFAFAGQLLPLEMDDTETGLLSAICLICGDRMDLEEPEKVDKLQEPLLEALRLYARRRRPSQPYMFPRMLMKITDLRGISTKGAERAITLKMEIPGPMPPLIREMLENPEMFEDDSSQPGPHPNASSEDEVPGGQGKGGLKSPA
# [7] = target: T5, Retinoic acid receptor RXR-alpha; remark: listed apart in the source
# Description: Inhibition of [3H]9-cis-RA binding to baculovirus expressed retinoid receptor RXR alpha
# [8] = target: T2, Retinoic acid receptor beta; assay: Effective concentration against retinoid receptor isoform (RAR beta) expressed in CV-1 cells; format: cell-based
# [9] = target: T4, Retinoic acid receptor RXR-gamma; assay: Effective concentration against retinoid receptor isoform (RXR gamma) expressed in CV-1 cells; format: cell-based
# [10] = target: T3, Retinoic acid receptor RXR-beta; assay: Effective concentration against retinoid receptor isoform (RXR beta) expressed in CV-1 cells; format: cell-based
# [11] = target: T1, Retinoic acid receptor alpha; assay: Effective concentration against retinoid receptor isoform (RAR alpha) expressed in CV-1 cells; format: cell-based
# [12] = target: T6, Retinoic acid receptor gamma; assay: Tested for binding affinity against [3H]-ATRA binding to retinoid receptor isoform (RAR gamma) expressed in baculovirus
# [13] = target: T1, Retinoic acid receptor alpha; assay: Inhibition of [3H]-ATRA binding to baculovirus expressed retinoid receptor RAR alpha
Kd [1] [nM],Kd [2] [nM],Kd [3] [nM],Kd [4] [nM],EC50 [5] [nM],EC50 [6] [nM],Kd [7] [nM],EC50 [8] [nM],EC50 [9] [nM],EC50 [10] [nM],EC50 [11] [nM],Kd [12] [nM],Kd [13] [nM],Structure (SMILES)
> 1000,> 1000,191,113,83,> 10000,96,> 10000,230,198,> 10000,> 1000,,C=C(c1ccc(C(=O)O)cc1)c1cc2c(cc1OC)C(C)(C)CCC2(C)C
,> 1000,34,35,51,> 10000,28,> 10000,43,59,> 10000,> 1000,> 1000,C=C(c1ccc(C(=O)O)cc1)c1cc2c(cc1Br)C(C)(C)CCC2(C)C
,> 1000,108,94,197,397,69,337,383,189,> 10000,> 1000,> 1000,C=C(c1ccc(C(=O)O)cc1)c1cc2c(cc1F)C(C)(C)CCC2(C)C
